Here are results for 15 compounds from PubChem BioAssay AID328 (DTP/NCI, 2004).

The assay has as its system BDF1 mice, P388 leukemia ip, median survival T/C. Put plainly: NCI In Vivo Anticancer Drug Screen. Data for tumor model P388 Leukemia (intraperitoneal) in B6D2F1 (BDF1) mice. As to conditions: endpoint: median survival time, higher = longer survival. As to the method: The antitumor activity of compounds was measured in mice bearing transplantable tumors. Survival or tumor size were measured and the results are expressed as the measurement made in the treated group (T) divided by the measurement made in the vehicle treated control group (C). The tumor model used in this assay is P388 Leukemia (intraperitoneal) in B6D2F1 (BDF1) mice

The mark [1] stands for this setting: dose: 100.0 mg/kg/injection, schedule: Q04DX003 (ip), vehicle: other.
Where [2] appears, read: dose: 400.0 mg/kg/injection, schedule: Q04DX003 (ip), vehicle: other.
Where [3] appears, read: dose: 100.0 mg/kg/injection, schedule: Q01DX009 (ip), vehicle: saline with Tween-80.
Where [4] appears, read: dose: 200.0 mg/kg/injection, schedule: Q01DX009 (ip), vehicle: saline with Tween-80.
The mark [5] stands for this setting: dose: 400.0 mg/kg/injection, schedule: Q01DX009 (ip), vehicle: saline with Tween-80.
Where [6] appears, read: dose: 50.0 mg/kg/injection, schedule: Q01DX009 (ip), vehicle: Klucel (hydroxypropylcellulose) (HPC).
[7] abbreviates: dose: 100.0 mg/kg/injection, schedule: Q01DX009 (ip), vehicle: Klucel (hydroxypropylcellulose) (HPC).
[8] abbreviates: dose: 100.0 mg/kg/injection, schedule: Q04DX003 (ip), vehicle: Klucel (hydroxypropylcellulose) (HPC).
Where [9] appears, read: dose: 200.0 mg/kg/injection, schedule: Q01DX009 (ip), vehicle: Klucel (hydroxypropylcellulose) (HPC).
The mark [10] stands for this setting: dose: 100.0 mg/kg/injection, schedule: Q04DX003 (ip), vehicle: saline with Tween-80.

SMILES strings stand for the structures. Inconclusive results and toxic doses are left out.

Regarding `CCOC(=O)CC(COC)C(C(=O)OCC)C(=O)OCC` (stereo unspecified), the T/C by setting is: (dose: 25.0 mg/kg/injection, schedule: Q01DX009 (ip), vehicle: other) 95 % of control; (dose: 50.0 mg/kg/injection, schedule: Q01DX009 (ip), vehicle: other) 121 % of control; (dose: 50.0 mg/kg/injection, schedule: Q04DX003 (ip), vehicle: other) 122 % of control; (dose: 100.0 mg/kg/injection, schedule: Q01DX009 (ip), vehicle: other) 92 % of control; under setting [1], 122 % of control; (dose: 200.0 mg/kg/injection, schedule: Q01DX009 (ip), vehicle: other) 100 % of control. In addition, the T/C (dose: 200.0 mg/kg/injection, schedule: Q04DX003 (ip), vehicle: other) is 122 % of control and the T/C under setting [2] was 100 % of control.

As for `O=C(c1ccc(Cl)cc1)c1cccc[n+]1Cc1ccccc1`, the T/C was 100 % of control (dose: 0.37 mg/kg/injection, schedule: Q01DX009 (ip), vehicle: Klucel (hydroxypropylcellulose) (HPC)); 104 % of control (dose: 18.75 mg/kg/injection, schedule: Q01DX009 (ip), vehicle: Klucel (hydroxypropylcellulose) (HPC)); 100 % of control (dose: 28.12 mg/kg/injection, schedule: Q04DX003 (ip), vehicle: Klucel (hydroxypropylcellulose) (HPC)); 109 % of control (dose: 37.5 mg/kg/injection, schedule: Q01DX009 (ip), vehicle: Klucel (hydroxypropylcellulose) (HPC)); 95 % of control (dose: 56.25 mg/kg/injection, schedule: Q04DX003 (ip), vehicle: Klucel (hydroxypropylcellulose) (HPC)); 100 % of control (dose: 112.5 mg/kg/injection, schedule: Q04DX003 (ip), vehicle: Klucel (hydroxypropylcellulose) (HPC)).

For `CCOC(=O)/C(=C(/N)C1OC(COC(c2ccccc2)(c2ccccc2)c2ccccc2)C2OC(C)(C)OC12)C1CC(=O)N(C)C1=O` (stereo unspecified), the T/C was 99 % of control (dose: 50.0 mg/kg/injection, schedule: Q01DX009 (ip), vehicle: saline with Tween-80) and 90 % of control under setting [3].

On to `O=C(O)CCc1c[nH]c2ccc(N(CCCl)CCCl)cc12`, for which the T/C was 109 % of control (dose: 0.04 mg/kg/injection, schedule: Q04DX003 (ip), vehicle: saline with Tween-80); 109 % of control (dose: 0.08 mg/kg/injection, schedule: Q04DX003 (ip), vehicle: saline with Tween-80); 158 % of control (dose: 0.5 mg/kg/injection, schedule: Q04DX003 (ip), vehicle: saline with Tween-80); 231 % of control (dose: 0.5 mg/kg/injection, schedule: Q04DX003 (ip), vehicle: saline); 154 % of control (dose: 0.75 mg/kg/injection, schedule: Q04DX003 (ip), vehicle: saline with Tween-80); 90 % of control (dose: 1.0 mg/kg/injection, schedule: Q04DX003 (ip), vehicle: saline).

As for `O=[N+]([O-])c1ccc(S(=O)(=O)Cc2ccccc2)c2nonc12`, the T/C (dose: 25.0 mg/kg/injection, schedule: Q01DX009 (ip), vehicle: saline with Tween-80) is 112 % of control.

As for `O=C/C=C/Nc1ccccc1`, the T/C under setting [3] is 122 % of control, the T/C under setting [4] is 109 % of control and the T/C under setting [5] is 90 % of control.

Consider `Cc1cccc(N=P(c2ccccc2)(c2ccccc2)c2ccccc2)c1`, for which the T/C under setting [6] was 109 % of control; the T/C (dose: 50.0 mg/kg/injection, schedule: Q04DX003 (ip), vehicle: Klucel (hydroxypropylcellulose) (HPC)) is 109 % of control; the T/C under setting [7] is 118 % of control; the T/C under setting [8] is 100 % of control; the T/C (dose: 133.0 mg/kg/injection, schedule: Q01DX009 (ip), vehicle: Klucel (hydroxypropylcellulose) (HPC)) was 117 % of control; the T/C under setting [9] is 108 % of control. In addition, the T/C (dose: 200.0 mg/kg/injection, schedule: Q04DX003 (ip), vehicle: Klucel (hydroxypropylcellulose) (HPC)) was 95 % of control.

With `CN(N=O)C(=O)NCCSSCCNC(=O)N(C)N=O`, the T/C by setting is: (dose: 53.0 mg/kg/injection, schedule: Q04DX003 (ip), vehicle: saline with Tween-80) 120 % of control; (dose: 80.0 mg/kg/injection, schedule: Q04DX003 (ip), vehicle: saline with Tween-80) 170 % of control; (dose: 120.0 mg/kg/injection, schedule: Q04DX003 (ip), vehicle: saline with Tween-80) 100 % of control.

With `CN1CCc2ccccc2C1Cc1ccccc1NC(=O)c1sc2ccccc2c1Cl` (stereo unspecified), the T/C is 86 % of control under setting [6], 91 % of control under setting [7] and 89 % of control under setting [9].

For the compound `CC(=O)O.[Au].c1ccc([PH+](c2ccccc2)c2ccccc2)cc1`, under setting [10], the T/C was 110 % of control.

Turning to `CCCCCCC(=O)CCCCCCCCCCCCC(=O)OC`, the T/C was 90 % of control (dose: 1.56 mg/kg/injection, schedule: Q01DX009 (ip), vehicle: saline with Tween-80); 100 % of control (dose: 3.13 mg/kg/injection, schedule: Q01DX009 (ip), vehicle: saline with Tween-80); 95 % of control (dose: 6.25 mg/kg/injection, schedule: Q01DX009 (ip), vehicle: saline with Tween-80).

Regarding `NC(=O)c1ccc(NC(=O)/C=C/C(=O)Nc2ccc(C(N)=O)cn2)nc1`, the T/C by setting is: (dose: 0.08 mg/kg/injection, schedule: Q01DX009 (ip), vehicle: saline) 115 % of control; (dose: 0.17 mg/kg/injection, schedule: Q01DX009 (ip), vehicle: saline) 120 % of control; (dose: 0.35 mg/kg/injection, schedule: Q01DX009 (ip), vehicle: saline) 105 % of control; (dose: 0.7 mg/kg/injection, schedule: Q01DX009 (ip), vehicle: saline) 103 % of control; (dose: 1.4 mg/kg/injection, schedule: Q01DX009 (ip), vehicle: saline) 107 % of control; (dose: 1.65 mg/kg/injection, schedule: Q01DX009 (ip), vehicle: saline with Tween-80) 113 % of control. Moreover, the T/C reads like this: (dose: 2.5 mg/kg/injection, schedule: Q01DX009 (ip), vehicle: saline with Tween-80) 117 % of control; (dose: 3.75 mg/kg/injection, schedule: Q01DX009 (ip), vehicle: saline with Tween-80) 94 % of control; (dose: 4.5 mg/kg/injection, schedule: Q04DX003 (ip), vehicle: saline) 86 % of control; (dose: 5.62 mg/kg/injection, schedule: Q01DX009 (ip), vehicle: saline) 104 % of control; (dose: 9.0 mg/kg/injection, schedule: Q04DX003 (ip), vehicle: saline) 108 % of control; (dose: 18.0 mg/kg/injection, schedule: Q04DX003 (ip), vehicle: saline) 100 % of control. The T/C by setting is: (dose: 26.0 mg/kg/injection, schedule: Q04DX003 (ip), vehicle: saline) 112 % of control; (dose: 40.0 mg/kg/injection, schedule: Q04DX003 (ip), vehicle: saline) 108 % of control.

On to `OCc1cc(Cl)ccc1O`, for which the T/C reads like this: under setting [6], 101 % of control; under setting [7], 103 % of control; under setting [1], 100 % of control; (dose: 132.0 mg/kg/injection, schedule: Q04DX003 (ip), vehicle: other) 95 % of control; under setting [9], 110 % of control; (dose: 300.0 mg/kg/injection, schedule: Q04DX003 (ip), vehicle: other) 108 % of control. Also, under setting [2], the T/C was 109 % of control.

Regarding `COc1cc(/C=N/NC(=O)c2ccccc2)cc(OC)c1OC`, the T/C is, setting by setting: under setting [3], 95 % of control; under setting [10], 109 % of control; under setting [4], 100 % of control; (dose: 200.0 mg/kg/injection, schedule: Q04DX003 (ip), vehicle: saline with Tween-80) 104 % of control; under setting [5], 95 % of control; (dose: 400.0 mg/kg/injection, schedule: Q04DX003 (ip), vehicle: saline with Tween-80) 90 % of control.

Regarding `CCC(=O)OCC1OC(n2cnc3c(=S)nc(N)[nH]c32)C(OC(=O)CC)C1OC(=O)CC` (stereo unspecified), the T/C is 103 % of control (dose: 12.5 mg/kg/injection, schedule: Q04DX003 (ip), vehicle: Klucel (hydroxypropylcellulose) (HPC)); 118 % of control (dose: 16.0 mg/kg/injection, schedule: Q04DX003 (ip), vehicle: Klucel (hydroxypropylcellulose) (HPC)); 115 % of control (dose: 25.0 mg/kg/injection, schedule: Q01DX009 (ip), vehicle: Klucel (hydroxypropylcellulose) (HPC)); 173 % of control (dose: 25.0 mg/kg/injection, schedule: Q04DX003 (ip), vehicle: Klucel (hydroxypropylcellulose) (HPC)); 100 % of control under setting [6]; 122 % of control under setting [8].
